# Test results: patent publication US9040671B2, “Methods for cancer management targeting Co-029” (Institut National de la Sante et de la Recherche Medicale …, priority 2010, dated 2015)
# Key:
# Is1-Co029 cells = experiment: 2D cell motility on collagen I by videomicroscopy, Is1-Co029 cells; type: cell-based, human
# Protocol: Cells and cell culture. The cell lines Isreco1, Isreco2 and Isreco3 were initially derived from a primary human colon cancer surgical specimen (Isreco1)(Duke's C, class III) and its corresponding liver and peritoneal metastases (Cajot et al., 1997). These cells were cultured in Dulbecco's modified Eagle's medium (DMEM) supplemented with 10% FCS, glutamax and antibiotics (all from Invitrogen). For experiments, tissue culture plastics were coated with rat tail Collagen I (BD Biosciences) for 1 hour at 50 μg/ml and rinsed with PBS.
# Construction of the Co-029 and CD81 lentiviral vector and transduction of Isreco1 cells. Since Isreco1 cells were not efficiently transfected by using non retroviral methods we constructed the TRIPΔ3-EF1α-Co029 and TRIPΔ3-EF1α-CD81 plasmids by inserting the human Co029 and the human CD81 cDNA coding sequence in TRIPΔ3-EF1α vectors. […]. Is1-Co029 and Is1-CD81 cells were obtained by transducing Isrecol cells twice with concentrated lentiviral particles. Is1-Co029low cells were obtained following a single transduction.
# Videomicroscopy. Analysis of 2D cell motility on collagen I films was performed using phase contrast on an inverted microscope (Axiovert 200; Zeiss,Oberkochen, Germany) equipped with an environmental chamber with 5% CO2 in air at 37° C. The microscope was driven by the Metamorph software (Roper Scientific),and images were recorded with a Coolsnap HQ camera (Roper Scientific). Stacks of phase contrast images were collected every 15 min for 24 h at ×200 magnification. Cell migration was quantified using the manual tracking plugin of ImageJ (Rasband, 2007) Raw data were transfered to Excel for speed calculations and statistical analysis was performed by the non parametric Mann-Whitney test in Graphpad. For each position at least 10 cells were analyzed. Experiments were repeated from 2 to 10 times to verify the robustness of the results and the stability of the measurements.
# For silencing experiments, motility measures were performed 48 hours after RNAi treatments. […]
# p120-catenin = experiment: Flow cytometry of p120-catenin in permeabilized cells after RNA silencing; type: cell-based, human; conditions: Is1-Co029 cells on collagen I, 48 hours after silencing
# Protocol: For intracellular cytometry, cells were detached using trypsin or scrapped in PBS (4° C.) then fixed for 20 min at 4° C. with 1% formaldehyde in PBS. After centrifugation, cells were incubated in methanol 100% for 10 min at −20° C. then washed in PBS and stained with 10 μg/ml of primary antibody. After washes in PBS, cells were incubated with 10 μg ml FITC-labelled secondary antibody (Beckman Coulter), washed again three times and immediately analysed.
# (§1) RNA silencing. Cells (1-3×10^5 cells in DMEM medium) were reverse transfected with synthetic si-RNA oligonucleotides using Interferrin (Ozyme) according to manufacturer's protocol.
# (§2) 6, 12 or 24 well cell culture plates were coated with rat tail collagen I. Plates were rinsed in PBS. One μl of the siRNA (10 μM) oligonucleotide mix was added to 96 μl DMEM without serum and 3-5 μl Interferrin and incubated at room temperature in each well during 20 min to allow formation of transfection complexes. Cells detached by trypsin-EDTA were layered at appropriate concentration in 400 μlDMEM medium with serum (the final concentration of si-RNA was 20 nM).
# E-cadherin = experiment: Flow cytometry of surface E-cadherin after RNA silencing; type: cell-based, human; conditions: Is1-Co029 cells cultured on collagen I
# Protocol: Immunofluorescence. For flow cytometry analysis of cell surface molecules, cells were detached using a non-enzymatic solution (Invitrogen), washed and stained with 10 μg/ml of primary antibody. After washes in culture medium, cells were incubated with 10 μg/ml-1 FITC-labelled secondary antibody (Beckman Coulter), washed again three times and fixed with 1% formaldehyde in PBS. All incubations were performed for 30 min at 4° C. Analysis of cell-surface staining was performed using a FACScalibur flow cytometer (Becton-Dickinson, San Jose, Calif., USA).
# as §1, §2
# Is1-Co029 tumor cells = experiment: Effect of antiCo-029 antibodies on subcutaneous tumor growth; type: in vivo, mice; conditions: 1 mg i.p. biweekly; for Tumor growth inhibition (T/C %): vs PBS control
# Protocol: Effect of antiCo-029 antibodies on subcutaneous tumor growth. In order to realize the animal experiments, a large amounts of purified mAbs was prepared. The yield of mAb TS29.2 (IgG2b) was of approximately 5 mg purified mAb/ml ascitis. Mice produce a mean of 10 ml ascitis/mouse.
# Ascitis were clarified by centrifugation and 0.45 μm filtered. The mAbs were purified by using the Biosepra MEP HyperCel* Hydrophobic Charge Induction Chromatography (HCIC) Sorbent, dialysed against PBS and the purity checked by gel electrophoresis and Coomassie Blue coloration. Fractions were aliquoted and frozen at −20° C.
# The effect of the antibodies on tumor growth was evaluated by subcutaneous implantation of tumor cells issued from colon carcinoma cell lines, followed by repeated injections of monoclonal antibodies with appropriate controls.
# Ten Nude mice were injected subcutaneously with 10^7 Is1-Co029 tumor cells and divided in two groups, antibody treated and PBS control. Each group received an i.p. injection of either 1 mg Ts29.2 or the same volume of PBS and biweekly subsequent injections of 1 mg Ts29.2 or PBS i.p., for a total of nine injections. The size of the tumor was determined by the formula (π/6×length×width×thickness).
# Tumor growth inhibition (T/C %) was defined as the ratio of the median tumor volume for the treated vs. control group. It will be calculated as T/C %=[(median tumor volume of treated group at day X)/(median tumor volume of control group at day X)]×100.
molecule,measurement,setting,value
"si-Co029: si-RNA to Co-029, GGUAUCCUAGGAGCUGUUUdTdT (SEQ ID NO: 10) (listed as RNA, chemistry not fully specified)","effect on the acceleration of Is1-Co029 cells induced by si-p120, in words",Is1-Co029 cells; cells silenced for p120ctn,reversed
same,"effect on the increased motility induced by si-Ecad, in words",Is1-Co029 cells; co-silencing with si-Ecad,suppressed
"si-p120: si-RNA to p120ctn; si-p120a GCCAGAGGUGGUUCGGAUAdTdT (SEQ ID NO: 20) used throughout the study (listed as RNA, chemistry not fully specified)",reduction of the amount of p120ctn,p120-catenin,80%
same,reduction of surface E-cadherin,E-cadherin,50%
"si-RhoA: si-RNA to RhoA, GAACUAUGUGGCAGAUAUCdTdT (SEQ ID NO: 23), Dharmacon (listed as RNA, chemistry not fully specified) [reference compound]","effect on motility of Is1-Co029 cells, in words","Is1-Co029 cells; sparse cells on collagen I, agent alone",same effect on motility as p120-catenin silencing
"Ts29.2: murine monoclonal antibody against Co-029 obtainable from hybridoma CNCM I-4047; VH SEQ ID NO: 1, VL SEQ ID NO: 5 (antibody, V domains shown, Synthetic VH; Synthetic VL) VH: EVKVVESGGGLVQPGGSLRLSCATSGFTFTDYYMSWVRQPPGKALEWLGFIRNRVSGYTTEYSASVQGRFTISRDNSQSILYLQMNTLRAEDSATYYCARDHYGNFAMDYWGQGTSVTVSS VL: DIQMTQSSSSFSVSLGDRVTITCKASEDIYNRLAWYQQKPGNAPRLLISGATSLETGVPSRFSGSGSGKDYTLSITSLQTEDVASYYCQQYWSTPFTFGSGTKLEIK","growth of Is1-Co029 cells (subcutaneous tumor), in words",Is1-Co029 tumor cells; Nude mice,inhibits significantly
same,Tumor growth inhibition (T/C %),"Is1-Co029 tumor cells; day 43 (J43), nine injections",36%
same,Tumor growth inhibition (T/C %),"Is1-Co029 tumor cells; day 50 (J50), nine injections",35%
same,mean tumor size,"Is1-Co029 tumor cells; day 50, nine injections, PBS control 557±141.6",195.7±47.7 mm^3
